Experiments:
[1] = target: T1, Prostaglandin G/H synthase 1 (Ovis aries, UniProt P05979); assay: In Vitro Cyclo-Oxygenase Inhibition Assay
T1 sequence (P05979 whole entry): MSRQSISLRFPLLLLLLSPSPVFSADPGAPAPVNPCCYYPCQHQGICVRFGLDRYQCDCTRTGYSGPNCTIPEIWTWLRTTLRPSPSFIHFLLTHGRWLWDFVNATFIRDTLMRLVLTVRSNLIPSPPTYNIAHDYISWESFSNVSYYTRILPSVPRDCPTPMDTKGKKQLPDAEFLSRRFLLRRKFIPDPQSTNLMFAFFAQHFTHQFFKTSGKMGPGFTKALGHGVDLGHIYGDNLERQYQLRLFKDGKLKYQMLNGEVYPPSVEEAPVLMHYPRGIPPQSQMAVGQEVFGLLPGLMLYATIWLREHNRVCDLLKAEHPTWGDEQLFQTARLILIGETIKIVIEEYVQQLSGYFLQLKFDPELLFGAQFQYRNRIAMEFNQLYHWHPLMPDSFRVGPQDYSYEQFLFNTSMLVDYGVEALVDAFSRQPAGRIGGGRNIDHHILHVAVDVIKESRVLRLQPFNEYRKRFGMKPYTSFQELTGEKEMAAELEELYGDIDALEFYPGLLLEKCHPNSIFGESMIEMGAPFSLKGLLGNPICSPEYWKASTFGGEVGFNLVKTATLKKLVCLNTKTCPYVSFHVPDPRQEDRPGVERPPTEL
Description: (§1) Inhibition of the enzymes was determined using an enzyme immunoassay (EIA) kit (catalog no. 560101, Cayman Chemical, Ann Arbor, MI, USA) according to the methodology described by Jashim Uddin et al. [Jashim Uddin et al., Bioorg. Med. Chem., 12:5929-40].

[2] = target: T2, Prostaglandin G/H synthase 2 (Ovis aries, UniProt P79208); assay: In Vitro Cyclo-Oxygenase Inhibition Assay
T2 sequence (P79208 whole entry): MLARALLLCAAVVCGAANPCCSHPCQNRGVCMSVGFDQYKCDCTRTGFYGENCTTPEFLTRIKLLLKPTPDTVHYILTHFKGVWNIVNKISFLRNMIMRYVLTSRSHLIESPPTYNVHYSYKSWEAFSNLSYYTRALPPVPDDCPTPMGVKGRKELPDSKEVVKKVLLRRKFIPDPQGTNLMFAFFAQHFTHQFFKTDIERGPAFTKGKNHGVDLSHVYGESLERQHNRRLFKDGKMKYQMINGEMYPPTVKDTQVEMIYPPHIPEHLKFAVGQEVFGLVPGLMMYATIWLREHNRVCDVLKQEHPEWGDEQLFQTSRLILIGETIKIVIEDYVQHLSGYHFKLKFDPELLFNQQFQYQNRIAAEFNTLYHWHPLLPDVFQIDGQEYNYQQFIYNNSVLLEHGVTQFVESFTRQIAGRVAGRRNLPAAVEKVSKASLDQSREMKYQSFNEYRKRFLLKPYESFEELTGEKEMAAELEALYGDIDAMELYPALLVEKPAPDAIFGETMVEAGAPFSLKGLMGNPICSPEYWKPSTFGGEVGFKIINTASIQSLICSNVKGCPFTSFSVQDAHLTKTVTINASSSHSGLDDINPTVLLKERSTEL
Description: as §1

IC50 [1] [µM]	IC50 [2] [µM]	Structure (SMILES)
52.4	2.4	CC(C)Cc1ccc(C2=C/C(=C\c3ccccc3Cl)C(=O)O2)cc1 [3-(2-Chlorobenzylidene)-5-(4-isobutylphenyl)-2(3H)-furanone (3)]
47.6	1.8	CC(C)Cc1ccc(C2=C/C(=C\c3c(Cl)cccc3Cl)C(=O)O2)cc1 [3-(2,6-Dichlorobenzylidene)-5-(4-isobutylphenyl)-2(3H)-furanone (13)]
48.2	2.2	CC(C)Cc1ccc(C2=C/C(=C\c3ccc(Cl)cc3Cl)C(=O)O2)cc1 [3-(2,4-Dichlorobenzylidene)-5-(4-isobutylphenyl)-2(3H)-furanone (14)]
68.3	3.8	CC(C)Cc1ccc(C2=C/C(=C\c3ccc(F)cc3)C(=O)O2)cc1 [3-(4-Fluorobenzylidene)-5-(4-isobutylphenyl)-2(3H)-furanone (9)]
